Laboratory results taken from ChEMBL document CHEMBL1150233, “Circumdatin G, a new alkaloid from the fungus Aspergillus ochraceus” (J Nat Prod, 2001).
pIC50: −log10 of the molar value.

Test: Inhibition of HCV protease
Parameters: species or system Hepacivirus hominis

Row | pIC50 | SMILES
1 | 5.11 | CCCC(=O)c1cc2c(c(O)c1C)C(=O)C(=O)c1c(O)cccc1-2
2 | 4.46 | CC1Cc2cccc(O)c2C(=O)O1 (stereo not drawn) [MELLEIN]

Row | SMILES | pIC50
3 | O=C1C=C2C(=CCOC2O)O1 (stereo not drawn) [PATULIN] | 4.61
